{"source": "paper PMC6348381", "about": "“Discovery of an MLLT1/3 YEATS Domain Chemical Probe” (Angewandte Chemie (International Ed. in English), 2018)", "target": "T1, MLLT3 (Homo sapiens, UniProt P42568)", "T1 construct": "in full length MLLT3 N-terminal NanoLuc, Histone; host or cells: HEK293", "T1 sequence (P42568 1-568)": "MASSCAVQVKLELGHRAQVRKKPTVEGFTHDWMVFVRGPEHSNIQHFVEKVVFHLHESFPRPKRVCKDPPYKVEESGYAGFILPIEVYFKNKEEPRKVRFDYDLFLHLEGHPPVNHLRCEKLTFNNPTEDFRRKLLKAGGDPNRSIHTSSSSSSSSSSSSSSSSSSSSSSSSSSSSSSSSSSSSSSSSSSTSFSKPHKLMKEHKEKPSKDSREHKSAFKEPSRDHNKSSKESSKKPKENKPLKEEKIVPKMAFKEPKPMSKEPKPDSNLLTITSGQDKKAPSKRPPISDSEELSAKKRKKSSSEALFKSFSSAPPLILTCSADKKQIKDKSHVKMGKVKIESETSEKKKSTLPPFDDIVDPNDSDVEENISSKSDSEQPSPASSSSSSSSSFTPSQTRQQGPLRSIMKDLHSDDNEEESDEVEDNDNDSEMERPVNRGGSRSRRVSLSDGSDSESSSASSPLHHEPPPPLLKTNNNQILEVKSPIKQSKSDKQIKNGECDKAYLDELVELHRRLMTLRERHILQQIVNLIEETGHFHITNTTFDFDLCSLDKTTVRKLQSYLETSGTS", "experiment": "NanoBRET assay, full-length MLLT3-NanoLuc / histone H3.3-HaloTag in HEK293 cells", "type": "cell-based", "conditions": "24 h", "protocol": "II.V NanoLuciferase Bioluminescent Resonance Energy Transfer (NanoBRET) Assay[2]\nHEK293 cells ([…]) were plated in each well of a 6-well plate after 6 h cells were co-transfected with Histone H3.3-HaloTag (NM_002107) and a NanoLuciferase fusion of MLLT1 or MLLT3 (WT sequences from Promega HaloTag® human ORF in pFN21A) at a 1:500 and 1:10 (NanoLuc® to HaloTag®) ratio respectively with FuGENE HD transfection regent. Sixteen hours post-transfection, cells were collected and exchanged into media containing phenol red-free DMEM and 4% FBS in the absence (control sample) or the presence (experimental sample) of 100 nM NanoBRET 618 fluorescent ligand (Promega).\nCell density was adjusted to 2 x 10^5 cells/mL and then seeded 100 µL/well in a white 96-well plate (Corning Costar #3917). Compounds were then added directly to media (in the presence of SAHA 2.5 µM) at final concentrations 0.01-30 μM or an equivalent amount of DMSO as a vehicle control, and the plates were incubated for 24 h at 37 °C in the presence […]\nNanoBRET Nano-Glo substrate (Promega) was added to both control and experimental samples at a final concentration of 10 µM. Readings were performed within 5 minutes using a ClarioSTAR (BMG labtech) equipped with LP 480 and 610 nm filters. A corrected BRET ratio was calculated and is defined as the ratio of the emission at 610 nm/[…] for experimental samples minus the emission at 6 10 nm/640 nm for control samples (not incubated with NanoBRET fluorescent ligand). BRET ratios are expressed as milliBRET units (mBU), where 1 mBU corresponds to the corrected BRET ratio multiplied by 1000.\n3.3 C-terminal HaloTag in HEK293 cells. Treatment with SAHA (2.5 µM) alone increases MLLT3- […]\ndependent manner. Mean±SD of BRET ratio (mBU), n=4 technical replicates.\n(also on this page, place not known: 5) -well H3.3 -HaloTag pFN21A ) ( NanoLuc® H aloTag®) post -transfection, red -free Nano -Glo 10 5 6 10 6 10 l igand). cells . […]"}
{"smiles": "C[C@H]1CCCN1Cc1nc2cc(NC(=O)c3ccc4c(cnn4C)c3)ccc2[nH]1", "note": "[Compound 92]", "values": [{"measurement": "IC50", "setting": "in the presence of 2.5 μM SAHA", "result": "400 ± 80", "unit": "nM"}, {"measurement": "MLLT3-Histone 3.3 interaction (mBU)", "setting": "representative assay", "result": "can reduce this interaction"}]}
